Measurements from ChEMBL document CHEMBL1201862, “PubChem BioAssay data set” (2004).
Active and inactive are the calls of the source.

Key:
[1] = target: T1, Rac GTPase-activating protein 1 (Homo sapiens, UniProt Q9H0H5); assay: MgcRacGAP GTPase-activating activity inhibitors, confirmation, biochemical, ADP Hunter fluorescence, primary and confirmatory (AID 624330); assay type: functional
T1 sequence (Q9H0H5 whole entry): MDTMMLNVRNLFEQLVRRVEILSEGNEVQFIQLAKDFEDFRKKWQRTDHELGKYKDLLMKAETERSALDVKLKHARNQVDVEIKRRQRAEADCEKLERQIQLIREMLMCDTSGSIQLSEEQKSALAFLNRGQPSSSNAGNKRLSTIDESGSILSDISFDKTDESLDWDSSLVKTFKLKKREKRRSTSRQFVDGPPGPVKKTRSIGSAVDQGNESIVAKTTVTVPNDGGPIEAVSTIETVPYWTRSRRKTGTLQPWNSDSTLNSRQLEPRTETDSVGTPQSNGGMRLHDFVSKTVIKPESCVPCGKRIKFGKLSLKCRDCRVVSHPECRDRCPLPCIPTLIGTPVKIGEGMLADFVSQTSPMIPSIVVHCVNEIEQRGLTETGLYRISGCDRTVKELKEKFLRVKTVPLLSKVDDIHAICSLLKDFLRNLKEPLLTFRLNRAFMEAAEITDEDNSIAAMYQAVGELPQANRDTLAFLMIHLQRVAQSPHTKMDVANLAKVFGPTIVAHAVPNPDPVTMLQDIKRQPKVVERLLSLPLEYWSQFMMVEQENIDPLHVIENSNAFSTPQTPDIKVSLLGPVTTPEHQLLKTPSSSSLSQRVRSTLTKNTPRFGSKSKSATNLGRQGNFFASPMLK

[2] = HeLa cell cytotoxicity, dose response, cytotoxicity control for MgcRacGAP inhibitor project (AID 624300); assay type: functional
[3] = Counterscreen for IDE inhibitors: Luminescence-based cell-based high throughput dose response assay to identify compounds that are cytotoxic to HEK cells. [Related pubchem assays: 434962 (Primary screen (IDE inhibitors in singlicate)), 449730 (Counterscreen (Cytotoxicity in triplicate)), 435028 (Confirmation (IDE inhibitors in triplicate)) …; assay type: functional; conditions: HEK293
Insulin-degrading enzyme = target: T2, Insulin-degrading enzyme (Homo sapiens, UniProt P14735); assay: Dose Response: Fluorescence polarization-based cell-based high throughput dose response assay for inhibitors of insulin-degrading enzyme (IDE). [Related pubchem assays: 434962 (Primary screen (IDE inhibitors in singlicate)), 449730 (Counterscreen (Cytotoxicity in triplicate)), 435028 (Confirmation (IDE inhibitors in triplicate)), 434984 (Summary …; assay type: functional
T2 sequence (P14735 whole entry): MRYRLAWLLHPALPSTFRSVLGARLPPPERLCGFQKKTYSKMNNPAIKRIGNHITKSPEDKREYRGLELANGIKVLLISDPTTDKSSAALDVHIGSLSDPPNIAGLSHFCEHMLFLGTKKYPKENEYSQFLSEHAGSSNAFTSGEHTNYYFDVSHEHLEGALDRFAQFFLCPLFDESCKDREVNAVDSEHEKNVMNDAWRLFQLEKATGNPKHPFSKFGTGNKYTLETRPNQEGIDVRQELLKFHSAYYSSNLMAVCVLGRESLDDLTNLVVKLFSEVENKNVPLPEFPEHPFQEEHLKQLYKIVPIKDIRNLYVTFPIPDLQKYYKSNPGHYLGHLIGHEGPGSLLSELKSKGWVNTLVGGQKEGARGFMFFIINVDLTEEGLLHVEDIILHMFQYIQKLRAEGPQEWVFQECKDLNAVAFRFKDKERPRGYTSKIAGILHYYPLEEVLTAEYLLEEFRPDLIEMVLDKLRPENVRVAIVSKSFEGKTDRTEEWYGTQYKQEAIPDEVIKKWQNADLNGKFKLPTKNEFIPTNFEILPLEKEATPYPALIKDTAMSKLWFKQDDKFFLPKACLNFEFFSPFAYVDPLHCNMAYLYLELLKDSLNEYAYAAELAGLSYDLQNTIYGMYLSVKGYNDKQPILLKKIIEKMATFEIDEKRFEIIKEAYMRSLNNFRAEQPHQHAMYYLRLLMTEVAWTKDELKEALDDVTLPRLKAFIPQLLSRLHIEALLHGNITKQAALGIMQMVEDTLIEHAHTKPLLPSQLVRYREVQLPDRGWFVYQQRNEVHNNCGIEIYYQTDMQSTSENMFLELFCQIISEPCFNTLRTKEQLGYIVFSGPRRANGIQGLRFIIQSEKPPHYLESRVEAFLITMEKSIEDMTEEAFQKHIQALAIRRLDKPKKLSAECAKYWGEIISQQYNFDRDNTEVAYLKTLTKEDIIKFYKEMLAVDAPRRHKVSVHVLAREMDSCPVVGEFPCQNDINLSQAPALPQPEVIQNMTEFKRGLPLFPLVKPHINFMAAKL

Cytochrome P450 2C9 = Cytochrome P450 2C9 (Homo sapiens, UniProt P11712); conditions: Potency
Sequence of Cytochrome P450 2C9 (P11712 whole entry): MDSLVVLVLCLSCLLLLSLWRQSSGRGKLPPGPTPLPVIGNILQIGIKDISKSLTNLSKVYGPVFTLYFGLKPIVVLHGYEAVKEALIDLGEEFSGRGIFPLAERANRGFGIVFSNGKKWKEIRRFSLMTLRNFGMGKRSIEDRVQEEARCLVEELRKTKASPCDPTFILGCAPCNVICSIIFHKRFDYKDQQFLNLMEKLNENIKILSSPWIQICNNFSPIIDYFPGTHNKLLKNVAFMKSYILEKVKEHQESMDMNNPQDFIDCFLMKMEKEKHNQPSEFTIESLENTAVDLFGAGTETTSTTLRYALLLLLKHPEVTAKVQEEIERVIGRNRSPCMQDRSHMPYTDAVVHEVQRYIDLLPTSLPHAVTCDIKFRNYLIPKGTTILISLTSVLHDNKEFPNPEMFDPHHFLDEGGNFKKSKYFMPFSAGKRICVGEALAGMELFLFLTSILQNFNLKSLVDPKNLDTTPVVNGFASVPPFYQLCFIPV

Cytochrome P450 3A4 = Cytochrome P450 3A4 (Homo sapiens, UniProt P08684); conditions: Potency;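 note: confirmatory qHTS run detecting inhibitors and substrates of CYP3A4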
Sequence of Cytochrome P450 3A4 (P08684 whole entry): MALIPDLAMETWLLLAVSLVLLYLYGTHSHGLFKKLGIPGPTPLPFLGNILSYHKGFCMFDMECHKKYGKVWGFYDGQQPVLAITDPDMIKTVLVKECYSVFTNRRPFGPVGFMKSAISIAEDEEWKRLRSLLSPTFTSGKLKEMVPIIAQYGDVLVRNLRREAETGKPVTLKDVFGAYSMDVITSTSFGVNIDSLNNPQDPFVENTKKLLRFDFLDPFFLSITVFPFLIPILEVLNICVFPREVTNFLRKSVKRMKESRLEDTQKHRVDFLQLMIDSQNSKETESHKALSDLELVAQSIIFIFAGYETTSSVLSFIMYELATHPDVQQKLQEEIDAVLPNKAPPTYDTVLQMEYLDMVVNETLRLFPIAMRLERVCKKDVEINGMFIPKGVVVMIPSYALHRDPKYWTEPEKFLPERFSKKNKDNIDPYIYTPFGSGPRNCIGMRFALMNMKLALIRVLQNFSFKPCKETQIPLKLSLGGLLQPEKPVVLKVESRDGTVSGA

[4] = growth suppression of beta-catenin-knockout colon cells, dose response, cell-based, HCT116, human colon tumor (AID 1045); assay type: functional;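 note: HCT116 colon tumor cells with beta catenin knocked out; cells exposed to compound for 60 hours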
BJ = assay: cytotoxicity toward Ras-transformed BJeLR fibroblasts, dose response, cell-based, alamar blue fluorescence, cherrypicked samples (AID 2631); assay type: functional; conditions: Homo sapiens;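 note: confirmatory dose-response assay in RAS-dependent BJ fibroblasts engineered with TERT, LT and ST, with cytotoxicity read by fluorescence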
[5] = Luminescence Cell-Based Dose Response HTS to Identify Inhibitors of 5'UTR Stem-Loop Driven Prion Protein mRNA Translation in H4 Neuroglioblastoma Cells. [Related pubchem assays: 1827 (Project Summary), 1813 (Primary HTS)]; assay type: functional
[6] = target: T3, Mannose-6-phosphate isomerase (Homo sapiens, UniProt P34949); assay: human PMI inhibitors, high substrate, primary screen, biochemical, fluorescence intensity, high mannose 6-phosphate (AID 1220)
T3 sequence (P34949 whole entry): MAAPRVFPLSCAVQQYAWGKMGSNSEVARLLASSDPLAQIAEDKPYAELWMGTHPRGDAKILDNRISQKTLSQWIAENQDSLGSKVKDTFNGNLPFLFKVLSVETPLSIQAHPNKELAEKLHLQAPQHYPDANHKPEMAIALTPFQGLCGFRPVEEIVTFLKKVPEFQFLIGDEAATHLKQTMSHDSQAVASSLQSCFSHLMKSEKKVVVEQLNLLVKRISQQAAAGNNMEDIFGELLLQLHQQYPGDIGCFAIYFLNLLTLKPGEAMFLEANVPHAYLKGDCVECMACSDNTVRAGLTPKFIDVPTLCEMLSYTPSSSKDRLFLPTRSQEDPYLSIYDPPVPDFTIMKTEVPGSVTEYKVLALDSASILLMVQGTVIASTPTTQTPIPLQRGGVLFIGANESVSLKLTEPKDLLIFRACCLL

[7] = growth suppression of PTEN-null colon cells, dose response, cell-based, HCT116 PTEN knockout (AID 1047); assay type: functional;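 note: HCT116 colon tumor cells with PTEN knocked out; cells exposed to compound for 60 hours before readout; potency for loss of cell viability measured by luminescence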
Streptococcus = assay: Group A Streptococcus viability loss, dose response, counter-screen for streptokinase expression inhibitor project, luminescence, BacTiterGlo (AID 1915); assay type: functional, organism-based;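 note: potency for reduction of bacterial viability or growth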
INS1 = assay: beta cell apoptosis inhibitors, cytokine rescue, dose response, luminescence, retest (AID 449756); assay type: functional, cell-based; conditions: Rattus norvegicus;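 note: cell death triggered by IL-1 beta plus TNF-alpha plus IFN-gamma mixture; protective hits raise ATP signal compared with cytokine alone wells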
Streptokinase A = target: T4, Streptokinase A (Streptococcus pyogenes serotype M1, UniProt P10520); assay: S. pyogenes streptokinase expression inhibitors, potency, dose response, plasminogen activation absorbance, OD405 (AID 1914); assay type: functional, Streptococcus pyogenes M1 GAS;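 note: secreted streptokinase activity via plasminogen activation per viability signal from cell pellet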
T4 sequence (P10520 whole entry): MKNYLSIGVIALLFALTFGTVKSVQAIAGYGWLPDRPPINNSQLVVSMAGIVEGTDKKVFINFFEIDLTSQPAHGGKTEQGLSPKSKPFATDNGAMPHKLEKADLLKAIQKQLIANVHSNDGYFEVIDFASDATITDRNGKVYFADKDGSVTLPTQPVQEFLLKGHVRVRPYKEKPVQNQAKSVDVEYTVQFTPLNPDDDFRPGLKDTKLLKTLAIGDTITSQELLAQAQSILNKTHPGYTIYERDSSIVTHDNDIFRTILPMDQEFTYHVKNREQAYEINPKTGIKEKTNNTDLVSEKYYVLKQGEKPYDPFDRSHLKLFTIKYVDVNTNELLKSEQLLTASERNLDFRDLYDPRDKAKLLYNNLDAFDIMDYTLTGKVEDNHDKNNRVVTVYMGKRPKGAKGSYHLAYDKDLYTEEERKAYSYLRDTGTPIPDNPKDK

[8] = Luminescence-based counterscreen assay for KLF5 inhibitors: dose response cell-based high throughput screening assay to identify cytotoxic compounds using the IEC-6 intestinal epithelial cell line. [Related pubchem assays: 1700 (Primary screen.), 1834 (Confirmation screen.), 1858 (Summary AID.), 1905 (Counterscreen.)]; assay type: functional
[9] = C. albicans growth with fluconazole, confirmation, fluorescence, retest (AID 2467); assay type: functional, cell-based
[10] = system: Streptococcus sp. 'group A'; assay: growth inhibition of control SK(-) GAS strain, dose response, counter-screen for streptokinase expression inhibitor project, luminescence, kanamycin, BacTiterGlo, confirmation (AID 1900); assay type: functional, organism-based
[11] = target: T5, Replicative DNA helicase DnaB (Mycobacterium tuberculosis, UniProt P9WMR3); assay: DnaB intein splicing inhibitors, dose response, biochemical, cell-free fluorescence (AID 449749); assay type: functional
T5 sequence (P9WMR3 whole entry): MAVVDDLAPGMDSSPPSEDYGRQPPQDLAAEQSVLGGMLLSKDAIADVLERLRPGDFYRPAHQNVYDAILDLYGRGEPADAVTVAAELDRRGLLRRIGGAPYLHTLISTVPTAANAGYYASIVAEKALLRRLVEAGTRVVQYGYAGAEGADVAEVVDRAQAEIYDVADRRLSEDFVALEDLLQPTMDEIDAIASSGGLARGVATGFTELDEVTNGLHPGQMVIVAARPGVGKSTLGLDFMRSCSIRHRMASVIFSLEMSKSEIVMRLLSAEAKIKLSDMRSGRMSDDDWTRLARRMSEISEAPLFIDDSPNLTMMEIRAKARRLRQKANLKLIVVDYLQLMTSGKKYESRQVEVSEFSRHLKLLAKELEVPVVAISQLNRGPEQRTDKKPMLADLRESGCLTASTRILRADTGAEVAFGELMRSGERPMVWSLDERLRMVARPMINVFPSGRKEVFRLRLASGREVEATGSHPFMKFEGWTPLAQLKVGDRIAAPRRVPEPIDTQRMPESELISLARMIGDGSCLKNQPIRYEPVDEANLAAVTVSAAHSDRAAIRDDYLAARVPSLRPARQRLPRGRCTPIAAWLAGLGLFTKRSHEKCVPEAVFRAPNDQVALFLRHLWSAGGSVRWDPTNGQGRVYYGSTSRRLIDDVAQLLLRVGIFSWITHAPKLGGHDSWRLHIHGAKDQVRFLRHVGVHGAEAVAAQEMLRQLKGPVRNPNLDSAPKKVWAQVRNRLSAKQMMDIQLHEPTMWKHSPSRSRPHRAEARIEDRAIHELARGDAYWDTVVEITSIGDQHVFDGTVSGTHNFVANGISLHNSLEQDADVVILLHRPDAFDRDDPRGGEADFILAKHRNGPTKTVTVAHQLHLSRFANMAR

Protein RecA = target: T6, Protein RecA (Mycobacterium tuberculosis, UniProt P9WHJ3); assay: Fluorescence Cell-Free Homogeneous Dose Retest to Identify Inhibitors of RecA-Intein Splicing Activity. [Related pubchem assays (depositor defined):AID2097, AID2223, AID489010, AID492950]; assay type: functional
T6 sequence (P9WHJ3 whole entry): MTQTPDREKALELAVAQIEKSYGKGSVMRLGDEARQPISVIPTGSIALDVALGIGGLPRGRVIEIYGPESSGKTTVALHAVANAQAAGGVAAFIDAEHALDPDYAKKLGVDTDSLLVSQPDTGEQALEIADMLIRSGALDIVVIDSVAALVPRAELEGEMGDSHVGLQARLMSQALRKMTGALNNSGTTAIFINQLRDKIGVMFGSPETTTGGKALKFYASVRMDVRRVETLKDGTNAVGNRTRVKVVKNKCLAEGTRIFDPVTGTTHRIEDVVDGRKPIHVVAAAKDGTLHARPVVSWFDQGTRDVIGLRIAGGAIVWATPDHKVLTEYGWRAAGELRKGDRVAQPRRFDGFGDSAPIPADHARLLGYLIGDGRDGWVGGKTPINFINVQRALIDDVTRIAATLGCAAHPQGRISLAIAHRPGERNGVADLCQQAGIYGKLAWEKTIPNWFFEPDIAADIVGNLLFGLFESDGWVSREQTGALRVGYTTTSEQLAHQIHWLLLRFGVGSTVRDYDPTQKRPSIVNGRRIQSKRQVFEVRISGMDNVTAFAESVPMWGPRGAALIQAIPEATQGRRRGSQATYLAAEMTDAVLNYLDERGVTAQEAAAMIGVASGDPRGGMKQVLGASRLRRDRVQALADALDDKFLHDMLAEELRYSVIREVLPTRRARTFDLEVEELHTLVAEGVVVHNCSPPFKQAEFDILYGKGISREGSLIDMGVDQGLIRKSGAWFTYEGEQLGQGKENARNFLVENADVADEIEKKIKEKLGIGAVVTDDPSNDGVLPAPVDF

[12] = inhibitors of SNCA 5'UTR-driven reporter translation, confirmation, H4 neuroglioma cells, luminescence (AID 1988); assay type: functional, cell-based
[13] = NIH-3T3 fibroblast cytotoxicity, dose response, cytotoxicity control, cell-based, fluorescence, Alamar Blue, secondary assay (AID 2327); assay type: functional;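 note: NIH-3T3 mouse fibroblasts cultured with fluconazole at 8 µg/mL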

Question: For COc1ccc(NC2=NC(=O)/C(=C/c3ccc(O)c(OC)c3)S2)cc1, which IC50 [1] is on record?
Answer: 17.9 µM (active)

Question: And the CC50 [2]?
Answer: 95.4 µM (active)

Question: What about the IC50 [3] of the same compound?
Answer: 38.1 µM (not active)

Question: What about the IC50 (Insulin-degrading enzyme) of the same compound?
Answer: > 6.22 µM (active)

Question: For N[C@@H](Cc1cc(O)c(O)cc1O)C(=O)O, which AC50 (Cytochrome P450 2C9) is on record?
Answer: 39.8 µM (inconclusive)

Question: And the AC50 (Cytochrome P450 3A4)?
Answer: 15.8 µM (inconclusive)

Question: Which EC50 [4] does the source give for C/N=C1\C(=O)c2ccccc2C(O)=C1N(C(C)=O)c1ccc(Br)cc1 here?
Answer: 0.594 µM (active)

Question: And the EC50 (BJ)?
Answer: 2.38 µM (active)

Question: What about the EC50 [5] of the same compound?
Answer: 11.4 µM (active)

Question: And the IC50 [6]?
Answer: > 50 µM (not active)

Question: And the EC50 [7]?
Answer: 0.688 µM (active)

Question: And the EC50 (Streptococcus)?
Answer: > 150 µM (not active)

Question: And the AC50 (INS1)?
Answer: 0.548 µM (active)

Question: What about the EC50 (Streptokinase A) of the same compound?
Answer: 23.9 µM (active)

Question: What about the IC50 [8] of the same compound?
Answer: 5.7 µM (active)

Question: And the EC50 [9]?
Answer: 0.242 µM (active)

Question: And the EC50 [10]?
Answer: 6.44 µM (active)

Question: What about the AC50 [11] of the same compound?
Answer: 11.3 µM (active)

Question: What about the EC50 (Protein RecA) of the same compound?
Answer: 0.795 µM (active)

Question: And the EC50 [12]?
Answer: 8.7 µM (active)

Question: What about the EC50 [13] of the same compound?
Answer: 3.59 µM (inconclusive)
